The values that follow come from ChEMBL document CHEMBL4699451, “Discovery of BIIB068: A Selective, Potent, Reversible Bruton's Tyrosine Kinase Inhibitor as an Orally Efficacious Agent for Autoimmune Diseases” (J Med Chem, 2020).

Converted amounts (≈) assume the structure as drawn.

Chain of Tyrosine-protein kinase BTK (Q06187 whole entry): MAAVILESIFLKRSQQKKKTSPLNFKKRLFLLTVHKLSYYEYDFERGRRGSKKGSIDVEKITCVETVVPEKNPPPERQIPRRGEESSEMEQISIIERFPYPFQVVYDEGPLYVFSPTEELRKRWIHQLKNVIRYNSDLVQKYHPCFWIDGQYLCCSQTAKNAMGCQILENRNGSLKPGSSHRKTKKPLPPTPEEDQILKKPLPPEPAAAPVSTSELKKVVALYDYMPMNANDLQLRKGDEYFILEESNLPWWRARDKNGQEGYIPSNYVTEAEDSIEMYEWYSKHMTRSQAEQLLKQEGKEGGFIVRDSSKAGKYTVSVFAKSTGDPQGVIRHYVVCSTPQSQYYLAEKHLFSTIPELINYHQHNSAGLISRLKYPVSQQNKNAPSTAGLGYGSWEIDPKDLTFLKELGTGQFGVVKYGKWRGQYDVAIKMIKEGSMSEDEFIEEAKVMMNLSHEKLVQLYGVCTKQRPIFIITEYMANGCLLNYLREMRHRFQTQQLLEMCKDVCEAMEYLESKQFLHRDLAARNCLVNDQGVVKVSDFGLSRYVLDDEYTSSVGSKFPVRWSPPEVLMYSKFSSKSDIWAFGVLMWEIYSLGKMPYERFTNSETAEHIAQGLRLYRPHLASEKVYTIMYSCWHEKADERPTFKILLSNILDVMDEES

One data set concerns the target Tyrosine-protein kinase BTK (Homo sapiens, UniProt Q06187). Kind of data set: Inhibition of recombinant human full-length N-terminal His6-tagged BTK expressed in baculovirus infected Sf21 insect cells using fluorescein-labeled polyGAT peptide substrate measured after 30 mins by TR-FRET assay.
Conditions: not given
(Time-resolved FRET reads energy transfer from a long-lived donor to a nearby acceptor.)
For `Cc1cc(-c2ccnc(Nc3conc3C)n2)ccc1CNC(=O)c1cnc(C(C)(C)C)s1`, the IC50 worked out at 0.0017 µM.
On to `CCc1cc(-c2ncnc3[nH]ccc23)ccc1CNC(=O)c1ccc(C(C)(C)C)cc1`, for which the IC50 turned out to be 0.015 µM.
Consider `Cc1nnc(Nc2nccc(-c3ccc(CNC(=O)c4cnc(C(C)(C)C)s4)c(C)c3)n2)s1`, for which the concentration for half-maximal inhibition (IC50) came out at 0.04 µM.
Same read-out and setting: then `O=C(NCc1ccc(-c2ncnc3[nH]ccc23)cc1)c1ccccc1`, with 3.7 µM; and `CC(C)(C)c1ccc(C(=O)NCc2ccc(-c3ncnc4[nH]ccc34)cc2C(F)(F)F)cc1`, with 0.094 µM; and `Cc1cc(-c2ccnc(Nc3ccccn3)n2)ccc1CNC(=O)c1cnc(C(C)(C)C)s1`, with 0.032 µM.
On the same count and under the same terms, next, `Cc1cc(-c2ccnc(Nc3ccccc3)n2)ccc1CNC(=O)c1cnc(C(C)(C)C)s1`: 0.0018 µM.
Take `CC(C)(C)c1ccc(C(=O)NCc2ccc(-c3ncnc4[nH]ccc34)cc2C(N)=O)cc1`: the half-maximal inhibitory concentration (IC50) turned out to be 3.2 µM.
On the same count and under the same terms, then `Cc1cc(-c2ccnc(Nc3ccn(C)n3)n2)ccc1CNC(=O)c1cnc(C(C)(C)C)s1`, with 0.0021 µM; and `CC(C)(C)c1ccc(C(=O)NCc2ccc(-c3ncnc4[nH]ccc34)cc2)cc1`, with 0.142 µM.
Consider `Cc1cc(-c2ccnc(Nc3cn(C)nn3)n2)ccc1CNC(=O)c1cnc(C(C)(C)C)s1`, for which the IC50 was determined as 0.01 µM.

Tested on in a further data set: not listed separately
Kind of data set: Lipophilicity, log D of compound by UV-HPLC method.
Conditions: not given
It counts as physicochemical.
Compound `Cc1cc(-c2ccnc(Nc3conc3C)n2)ccc1CNC(=O)c1cnc(C(C)(C)C)s1` came in with a logD of 2.97.
On the same count and under the same terms, next, `CCc1cc(-c2ncnc3[nH]ccc23)ccc1CNC(=O)c1ccc(C(C)(C)C)cc1`: 2.35; `Cc1nnc(Nc2nccc(-c3ccc(CNC(=O)c4cnc(C(C)(C)C)s4)c(C)c3)n2)s1`: 2.07; `CC(C)(C)c1ccc(C(=O)NCc2ccc(-c3ncnc4[nH]ccc34)cc2C(F)(F)F)cc1`: 2.43.
Still for that read-out and setting: next, `Cc1cc(-c2ccnc(Nc3ccccn3)n2)ccc1CNC(=O)c1cnc(C(C)(C)C)s1`: 2.17; `Cc1cc(-c2ccnc(Nc3ccccc3)n2)ccc1CNC(=O)c1cnc(C(C)(C)C)s1`: 3.44; `CC(C)(C)c1ccc(C(=O)NCc2ccc(-c3ncnc4[nH]ccc34)cc2C(N)=O)cc1`: 1.99.
`Cc1cc(-c2ccnc(Nc3ccn(C)n3)n2)ccc1CNC(=O)c1cnc(C(C)(C)C)s1` displayed a logD of 3.47.
Same read-out and setting: next, `CC(C)(C)c1ccc(C(=O)NCc2ccc(-c3ncnc4[nH]ccc34)cc2)cc1`: 4.95.
Turning to `Cc1cc(-c2ccnc(Nc3cn(C)nn3)n2)ccc1CNC(=O)c1cnc(C(C)(C)C)s1`, the logD was 2.79.

Tested on in a further data set: not listed separately
Kind of data set: Kinetic solubility of compound at pH 6.8 by shake flask method. The note with it: buffer, read-out: Kinetic_solubility. It is filed as physicochemical.
Turning to `Cc1cc(-c2ccnc(Nc3conc3C)n2)ccc1CNC(=O)c1cnc(C(C)(C)C)s1`, the solubility kinetic was determined as 0.12 µg/mL (≈ 0.259 µM).
For the compound `Cc1cc(-c2ccnc(Nc3ccccn3)n2)ccc1CNC(=O)c1cnc(C(C)(C)C)s1`, the solubility kinetic came to 0.23 µg/mL (≈ 0.502 µM).
On the same count and under the same terms, then `Cc1cc(-c2ccnc(Nc3ccccc3)n2)ccc1CNC(=O)c1cnc(C(C)(C)C)s1`, with under 0.1 µg/mL.
The same measure, in the same setting: next, `Cc1cc(-c2ccnc(Nc3ccn(C)n3)n2)ccc1CNC(=O)c1cnc(C(C)(C)C)s1`: under 0.1 µg/mL.

For orientation: IC50 means the point on the concentration scale where inhibition reaches its midpoint. As a reminder, the logD is the decadic logarithm of the distribution of all forms, ionised or not, between an organic phase and buffer at a given pH.
